The nature of the data set: photoluminescence quantum yield (fraction); solvent given as SMILES.

Where “and” joins values, the source holds several entries; their conditions need not be identical. Identical values can stand only once.

In turn, `CCCCCCCCn1c2cc(/C=C/c3ccc(N(c4ccccc4)c4ccccc4)cc3)ccc2c2cc3c(cc21)c1ccc(/C=C/c2ccc(N(c4ccccc4)c4ccccc4)cc2)cc1n3CCCCCCCC` yielded a photoluminescence quantum yield (in Cc1ccccc1) of 0.62.

For the setting “in ClCCl”, `c1csc(-n2c3ccccc3c3ccccc32)c1` returned a photoluminescence quantum yield of 0.014.

On to `C#CCNC1=C2C=CC=[N+]2[B-](F)(F)n2cccc21`, for which the photoluminescence quantum yield reads like this: (in C1CCCCC1) 0.93 and 0.999; (in CC(C)=O) 0.86; (in CCCCO) 0.79; (in CCCO) 0.741; (in CCO) 0.66 and 0.6; (in CCOC(C)=O) 0.94. Moreover, the photoluminescence quantum yield is, setting by setting: (in CN(C)C=O) 0.442; (in CO) 0.52; (in CS(C)=O) 0.278; (in Cc1ccccc1) 0.92; (in ClC(Cl)Cl) 0.829; (in OCC(F)(F)F) 0.88. For the same molecule, the photoluminescence quantum yield (in c1ccccc1) amounted to 0.924.

As for `C[Si](C)(C)C#Cc1ccc(C#Cc2cnc(C#Cc3ccccc3)nc2)cc1`, for the setting “in C1CCCCC1”, the photoluminescence quantum yield is 0.0085.

The molecule `Cn1c2ccc(S(=O)(=O)Cl)cc2c(=O)c2cc(S(=O)(=O)Cl)ccc21` gave a photoluminescence quantum yield (in CS(C)=O) of 0.7.

In the case of `CC(C)(C)c1ccc2ccc3c(C(C)(C)C)ccc4ccc1c2c43`, the photoluminescence quantum yield is, setting by setting: (in CCCCCC) 0.43; (in CO) 0.54; (in ClCCl) 0.34.

Molecule `CCCCCCN1C(=O)c2cccc3c(-c4ccc(-c5cc(-c6ccccc6)nn5-c5ccccc5)s4)ccc(c23)C1=O` had a photoluminescence quantum yield (in ClCCl) of 0.16.

`CC1(C)c2ccccc2N(c2ccc3c(c2)S(=O)(=O)c2cc(N4c5ccccc5C(C)(C)c5ccccc54)ccc2C3(C)C)c2ccccc21` yielded a photoluminescence quantum yield (in O=P(c1ccccc1)(c1ccccc1)c1ccccc1Oc1ccccc1P(=O)(c1ccccc1)c1ccccc1) of 0.62.

The molecule `CCN(C)c1ccc(C2=C3C(C)=CC(/C=C/c4ccc(OCC(=O)OC)cc4)=[N+]3[B-](F)(F)n3c(C)cc(C)c32)cc1` returned a photoluminescence quantum yield (in CO) of 0.78.

The molecule `c1ccc2c3c(ccc2c1)-c1c2ccccc2cc2cccc-3c12` came in with a photoluminescence quantum yield (in CCCCCCC) of 0.00088.

Consider `c1ccc(-c2nc(-c3ccccc3)c(N(c3ccccc3)c3ccccc3)[se]2)cc1`, for which, for the setting “in ClC(Cl)Cl”, the photoluminescence quantum yield stood at 0.068.

On to `Cc1ccc(-c2[nH]c(=O)n3c2-c2ccccc2C3=O)c(O)c1`, for which the photoluminescence quantum yield runs as follows: (in CC#N) 0.51; (in CO) 0.14; (in ClCCl) 0.63.

`CCCC1(CCC)c2cc(-c3ccc(C(C)(C)C)cc3)ccc2-c2ccc(-c3ccc4c(c3)C(CCC)(CCC)c3cc(-c5ccc6c(c5)C(CCC)(CCC)c5cc(-c7ccc8c(c7)C(CCC)(CCC)c7cc(-c9ccc(C(C)(C)C)cc9)ccc7-8)ccc5-6)ccc3-4)cc21` registered a photoluminescence quantum yield (in C1CCCCC1) of 1.

In the case of `CCOC(=O)c1cc(C(=O)OCC)c2cccc(O)c2n1`, the photoluminescence quantum yield (in CCO) is 0.17.

`COc1ccc(-n2nc(C#N)c(N3CCCC3)n2)cc1OC` gave a photoluminescence quantum yield (in CC#N) of 0.996.

For the molecule `COc1ccc(-c2cc3c(ccc4sc5ccc6sccc6c5c43)s2)cc1`, the photoluminescence quantum yield (in ClCCl) was 0.12.

Consider `CCC1=C(C)C2=Cc3c4ccccc4c4n3[B-](c3cc[n+](C)cc3)(Oc3ccccc3-4)[N+]2=C1C` (stereo not drawn), for which the photoluminescence quantum yield is, setting by setting: (in CO) 0.58; (in CS(C)=O) 0.63.

For the molecule `Nc1cccc2c1-c1ccccc1C2=O`, the photoluminescence quantum yield by setting is: (in C1CCCCC1) 0.035; (in CC#N) 0.012; (in CCO) 0.00024; (in c1ccccc1) 0.074.

In the case of `CCCC1=Cc2nc1ccc1[nH]c(cc1CCC)c1nc(ccc3[nH]c2cc3CCC)C(CCC)=C1`, for the setting “in Cc1ccccc1”, the photoluminescence quantum yield came to 0.38.

With `Clc1nc(Nc2ccccc2)nc(Nc2ccc3cc4ccccc4cc3c2)n1`, the photoluminescence quantum yield is, setting by setting: (in C1COCCO1) 0.42; (in CC#N) 0.18; (in CCCCOCCCC) 0.35; (in CCOC(C)=O) 0.23.

`O=C1c2ccccc2C2=Cc3ccccc3B(O)N12`: the photoluminescence quantum yield is 0.97 (in CC#N), 0.74 (in CO), 0.12 (in CS(C)=O) and 1 (in ClC(Cl)Cl).

On to `CC1(C)C(/C=C/C2=C(Oc3ccc(CCN=C=S)cc3Cl)C(=C/C=C3/N(CCCS(=O)(=O)[O-])c4ccccc4C3(C)C)/CCC2)=[N+](CCCS(=O)(=O)[O-])c2ccccc21`, for which the photoluminescence quantum yield (in CO) was 0.14.

In turn, `c1ccc(-c2nc(-c3ccccc3)nc(-c3ccc(-c4ccc5c(c4)C4(c6ccccc6-c6ccccc64)c4ccccc4N5c4ccccc4)cc3)n2)cc1` had a photoluminescence quantum yield (in c1cc(-c2cccc(-n3c4ccccc4c4ccccc43)c2)cc(-n2c3ccccc3c3ccccc32)c1) of 0.82.

With `CCCCCCCCCC1(CCCCCCCCC)c2cc(C#Cc3ccc(C#Cc4ccc(N(CCCCCC)CCCCCC)cc4)cc3)ccc2-c2ccc(C#Cc3ccc(C#Cc4ccc(N(CCCCCC)CCCCCC)cc4)cc3)cc21`, the photoluminescence quantum yield (in Cc1ccccc1) is 0.82.

As for `COc1c2ccccc2c(OC)c2c1c1c(F)cccc1n2C`, the photoluminescence quantum yield is, setting by setting: (in C1CCCCC1) 0.38; (in CC#N) 0.26; (in CO) 0.33; (in ClCCl) 0.41.

Molecule `COc1ccccc1-n1nc(C#N)c(N2CCCC2)n1` yielded a photoluminescence quantum yield (in CC#N) of 0.456.

`O=C(O)C1=C(C(=O)O)C2=C[C@H]3c4ccccc4[C@]2([Se]1)c1ccccc13` gave a photoluminescence quantum yield (in ClCCl) of 0.38.

Consider `COc1ccc(/C=C/c2nc(/C=C/c3ccc(N(c4ccccc4)c4ccccc4)cc3)cc(/C=C/c3ccc(N(c4ccccc4)c4ccccc4)cc3)n2)cc1`, for which the photoluminescence quantum yield (in ClCCl) was 0.91.

`CC1=CC(C)=[N+]2C1=C(c1ccc(I)cc1)c1c(C)cc(C)n1[B-]2(OCc1ccccc1)OCc1ccccc1` displayed a photoluminescence quantum yield (in ClC(Cl)Cl) of 0.65.

In the case of `CC1=CC(/C=C/c2ccc(C)cc2)=[N+]2C1=C(c1ccccc1)c1c(C)cc(/C=C/c3ccc(C)cc3)n1[B-]2(F)F`, the photoluminescence quantum yield (in CC1CCCO1) came out at 0.75.

In turn, `c1ccc(-c2nc3sc4ccccc4c3s2)nc1` gave a photoluminescence quantum yield (in CS(C)=O) of 0.82.

`Cc1oc(C)c2c1C=C(C=O)CC(C=O)=C2`: the photoluminescence quantum yield (in ClC(Cl)Cl) amounted to 0.

In the case of `CCCCCCOc1cc(/C=C/c2cc(OCCCCCC)c(/C=C/c3cc(OCCCCCC)c(C=O)cc3OCCCCCC)cc2OCCCCCC)c(OCCCCCC)cc1C=O`, the photoluminescence quantum yield (in ClCCl) is 0.52.

For the molecule `CCC1=C(C)C2=C(C)c3cc(I)cn3[B-](F)(F)[N+]2=C1C`, the photoluminescence quantum yield reads like this: (in C1CCCCC1) 0.13; (in CC(C)=O) 0.087; (in CCO) 0.095; (in CCOC(C)=O) 0.097; (in CO) 0.086; (in OCC(F)(F)F) 0.075.

In turn, `CCCCC(CC)CN1C(=O)c2cc(Oc3ccc(C(C)(C)C)cc3)c3c4c(Oc5ccc(OC)cc5)cc5c6c(cc(Oc7ccc(OC)cc7)c(c7c(Oc8ccc(C(C)(C)C)cc8)cc(c2c37)C1=O)c64)C(=O)N(c1c(C(C)C)cccc1C(C)C)C5=O` (stereo not drawn) displayed a photoluminescence quantum yield (in Cc1ccccc1) of 0.57.

Take `CCOC(=O)c1sc2nc(-c3ccccc3)c(C)c(C#N)c2c1N`: the photoluminescence quantum yield reads like this: (in C1COCCO1) 0.024; (in CC#N) 0.009; (in CCOC(C)=O) 0.027; (in ClC(Cl)Cl) 0.037; (in c1ccccc1) 0.047.

Turning to `CCn1c2ccccc2c2cc(/C=C/c3cc(/C=C/c4ccc5c(c4)c4ccccc4n5CC)[n+](CCCS(=O)(=O)[O-])c(/C=C/c4ccc5c(c4)c4ccccc4n5CC)c3)ccc21`, the photoluminescence quantum yield runs as follows: (in C1CCOC1) 0.12; (in CC#N) 0.05; (in CC(C)=O) 0.05; (in Cc1ccccc1) 0.09.

`CCCCc1ccc(-n2c3c4cc(F)ccc4nc(-c4ccc(OC)cc4)c3c3c2c2c(-c4ccc(OC)cc4)nc4ccc(F)cc4c2n3-c2ccc(CCCC)cc2)cc1` had a photoluminescence quantum yield (in ClC(Cl)Cl) of 0.19.

Consider `CCOc1ccc2c(-c3nc(-c4ccccc4)no3)cc(=O)oc2c1`, for which the photoluminescence quantum yield turned out to be 0.6 (in CCO) and 0.31 (in ClC(Cl)Cl).

`COc1ccc(N(c2ccc(C=C(c3ccccc3)c3ccccc3)cc2)c2ccc(C=C(c3ccccc3)c3ccccc3)cc2)cc1` showed a photoluminescence quantum yield (in Cc1ccccc1) of 0.06.

In the case of `CC[N+]1(CC)CN2C(=N1)C(C(=O)O)=Cc1c(OC)ccc(OC)c12`, the photoluminescence quantum yield (in O) turned out to be 0.018.

Turning to `CCCCCCCCn1c(=O)c2cc3cc4cc5c(=O)n(CCCCCCCC)c(=O)c5cc4c(-c4ccc(N(c5ccccc5)c5ccccc5)cc4)c3cc2c1=O`, under “in ClC(Cl)Cl”, the photoluminescence quantum yield amounted to 0.04.

In turn, `COc1ccc(N2c3ccc4ccccc4c3-c3c4ccccc4cc[n+]3[B-]2(c2ccccc2)c2ccccc2)cc1` showed a photoluminescence quantum yield (in Cc1ccccc1) of 0.001.

With `CN(C)c1ccc2nc3c(cc2c1)c(-c1ccccc1)nn3-c1ccccc1`, the photoluminescence quantum yield is, setting by setting: (in C1CCCCC1) 0.84; (in C1CCOC1) 0.62; (in CC#N) 0.57; (in CC(C)=O) 0.58; (in CCCCCl) 0.64; (in CCCCOCCCC) 0.77. The photoluminescence quantum yield (in CN(C)C=O) amounted to 0.46.

For the molecule `[NH3+]C1(c2ccc3cc(O)ccc3c2)C2CC3CC(C2)CC1C3` (stereo not drawn), the photoluminescence quantum yield (in CC#N) was 0.3.

`COc1ccc(/C=C2\OC(=O)c3ccccc32)cc1` returned a photoluminescence quantum yield (in CC(C)=O) of 0.01; a photoluminescence quantum yield (in CC(C)CO) of 0.07; a photoluminescence quantum yield (in CC(C)O) of 0.1; a photoluminescence quantum yield (in CCCO) of 0.13; a photoluminescence quantum yield (in CCO) of 0.14; a photoluminescence quantum yield (in CCOC(C)=O) of 0.008. In addition, the photoluminescence quantum yield by setting is: (in CCOCC) 0.001; (in CO) 0.14.

Where the note is “in ClC(Cl)Cl”, `CCC1=C(CC)C(C)=[N+]2C1=Cc1c(C)c3cc4c(cc3n1[B-]2(F)F)=[N+]1C(=Cc2c(CC)c(CC)c(C)n2[B-]1(F)F)C=4C` came in with a photoluminescence quantum yield of 0.72.

Take `CCOC(=O)C1=C(N)n2c(=O)c3ccccc3c(=O)n2C1c1cccs1` (stereo not drawn): the photoluminescence quantum yield (in CS(C)=O) was determined as 0.075.

Source of the values: the Deep4Chem optical property database.
